# Data reported in PMC2644664, “Effects of the K65R and K65R/M184V reverse transcriptase mutations in subtype C HIV on enzyme function and drug resistance” (Retrovirology, 2009).
# How the values were obtained:
# [1] = target: T1, subtype C HIV-1 RT (cWT), recombinant p66/p51 heterodimer; test: steady-state filter-binding assay, [3H]dATP incorporation; type: biochemical, Human immunodeficiency virus type 1; settings: dPR primer on subtype C HIV-1 PBS RNA, 50 μM dCTP/dGTP/dTTP, 5 mM MgCl2, pH 7.8, 37°C
# T1 construct: gene pol; mature RT cut from Gag-Pol polyprotein; plasmid pcRT6H-PROT, His-tagged, E. coli M15(pREP4); with p51 RT
# Description: steady-state filter-binding assay, [3H]dATP incorporation on subtype C HIV-1 RT (cWT), recombinant p66/p51 heterodimer
# [2] = test system: T1, subtype C HIV-1 RT (cWT), recombinant p66/p51 heterodimer; test: gel-based primer extension, inhibition of full-length DNA synthesis; type: biochemical, Human immunodeficiency virus type 1; settings: 19D/57D DNA primer/template
# Description: gel-based primer extension, inhibition of full-length DNA synthesis on subtype C HIV-1 RT (cWT), recombinant p66/p51 heterodimer | we determined the efficiencies of incorporation of TFV-DP using subtype C WT
Compound,"Ki ([1]; variable dATP, chain terminator, read-out: Ki(TFV), μM^b) [µM]",IC50 [2] [µM],Km ([1]; no TFV-DP) [µM]
C[C@H](Cn1cnc2c(N)ncnc21)OCP(=O)(O)OP(=O)(O)OP(=O)(O)O [TFV-DP],0.24 ± 0.04,2.6 ± 0.5,–
Nc1ncnc2c1ncn2[C@H]1C[C@H](O)[C@@H](COP(=O)(O)OP(=O)(O)OP(=O)(O)O)O1 [dATP],–,–,0.51 ± 0.04
